{"source": "ChEMBL document CHEMBL2163339", "about": "“Discovery of potent inhibitors of human and mouse fatty acid amide hydrolases” (J Med Chem, 2012)", "note": "Calls of active or inactive are those of the source. The rule behind the calls is not given here.", "data": [{"biological_target": "T1, Fatty-acid amide hydrolase 1 (Mus musculus, UniProt O08914)", "T1 sequence (O08914 whole entry)": "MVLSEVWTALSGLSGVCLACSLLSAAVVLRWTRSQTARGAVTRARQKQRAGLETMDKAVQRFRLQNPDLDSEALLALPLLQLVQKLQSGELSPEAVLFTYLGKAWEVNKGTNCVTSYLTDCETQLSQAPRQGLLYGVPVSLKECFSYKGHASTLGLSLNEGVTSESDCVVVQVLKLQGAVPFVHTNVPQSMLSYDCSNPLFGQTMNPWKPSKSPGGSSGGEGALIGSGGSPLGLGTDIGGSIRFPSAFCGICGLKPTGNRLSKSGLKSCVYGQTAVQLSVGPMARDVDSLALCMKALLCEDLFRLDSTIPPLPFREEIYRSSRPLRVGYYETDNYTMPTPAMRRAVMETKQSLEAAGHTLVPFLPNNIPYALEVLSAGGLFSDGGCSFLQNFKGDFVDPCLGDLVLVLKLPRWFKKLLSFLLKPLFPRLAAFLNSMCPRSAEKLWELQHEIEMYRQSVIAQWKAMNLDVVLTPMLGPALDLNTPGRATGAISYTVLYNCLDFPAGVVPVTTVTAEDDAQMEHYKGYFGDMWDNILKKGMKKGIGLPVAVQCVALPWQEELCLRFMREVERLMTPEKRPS", "test": "Inhibition of mouse FAAH isolated from brain homogenate using [3H-ethanolamine]AEA as substrate incubated for 20 mins prior to substrate addition measured after 15 mins by beta counting analysis", "units": {"IC50": "nM", "Ki": "nM"}, "values": [{"molecule": "NC(=O)c1ccn(-c2cccc(OC(=O)NCCOCCOc3ccc(F)cc3F)c2)c1", "IC50": 28, "Ki": 7}, {"molecule": "NC(=O)c1ccn(-c2cccc(OC(=O)NCCOCCOc3ccccc3F)c2)c1", "IC50": 69, "Ki": 18}, {"molecule": "Cc1oc(-c2cccc(OC(=O)NCCCCCCc3ccccc3)c2)cc1C(N)=O", "IC50": 18, "Ki": 4.8}, {"molecule": "NC(=O)c1ccn(-c2cccc(OC(=O)NCCOCCOc3c(F)cc(F)cc3F)c2)c1", "IC50": 43, "Ki": 11}, {"molecule": "Cc1cc(C(=O)NCCCCCCc2ccccc2)c(-c2cccc(OC(=O)NC3CCCCC3)c2)n1Cc1ccccc1", "IC50": "> 200"}, {"molecule": "COc1cccc(-c2c(C(=O)NCCCCCc3ccccc3)cc(C)n2Cc2ccccc2)c1", "IC50": "> 50000"}, {"molecule": "CCCCNC(=O)Oc1cccc(-n2ccc(C(=O)OCCCCCCc3ccccc3)c2)c1", "IC50": "> 200"}, {"molecule": "O=C(NC1CCCCC1)Oc1cccc(-n2ccc(C(=O)OCCCCCCc3ccccc3)c2)c1", "IC50": "> 50000"}, {"molecule": "C#CCCCCCCCCCOC(=O)c1ccn(-c2cccc(OC(=O)NC3CCCCC3)c2)c1", "IC50": "> 10000"}, {"molecule": "NC(=O)c1ccn(-c2cccc(OC(=O)NC3CCCCC3)c2)c1", "IC50": 120, "Ki": 32}, {"molecule": "NC(=O)c1ccn(-c2cccc(OC(=O)NCCOCCOc3ccccc3)c2)c1", "IC50": 87, "Ki": 23}, {"molecule": "CCCCNC(=O)Oc1cccc(-n2ccc(C(N)=O)c2)c1", "IC50": 240, "Ki": 60}, {"molecule": "C#CCCCCCCCCCOC(=O)c1ccn(-c2cccc(OC(=O)NCCCC)c2)c1", "IC50": "> 70"}, {"molecule": "CCCCNC(=O)Oc1cccc(-c2sc(C)cc2C(N)=O)c1", "IC50": "> 200"}, {"molecule": "Cc1oc(-c2cccc(OC(=O)NC3CCCCC3)c2)cc1C(N)=O", "IC50": "> 200"}, {"molecule": "CCCCNC(=O)Oc1cccc(-c2oc(C)cc2C(N)=O)c1", "IC50": 530, "Ki": 140}, {"molecule": "CCCCNC(=O)Oc1cccc(-c2cc(C(N)=O)c(C)o2)c1", "IC50": "> 200"}, {"molecule": "COc1cccc(-c2c(C(=O)NCCCCCCc3ccccc3)cc(C)n2Cc2ccccc2)c1", "IC50": "> 200"}, {"molecule": "Cc1cc(C(N)=O)c(-c2cccc(OC(=O)NC3CCCCC3)c2)s1", "IC50": "> 200"}, {"molecule": "C#CCCCCCCCCCOC(=O)c1ccn(-c2cccc(OC(=O)NCCCCCCc3ccccc3)c2)c1", "IC50": "> 200"}, {"molecule": "NC(=O)c1ccn(-c2cccc(OC(=O)NCCOCCOc3ccc(F)cc3)c2)c1", "IC50": 31, "Ki": 8}, {"molecule": "Cc1cc(C(N)=O)c(-c2cccc(OC(=O)NC3CCCCC3)c2)o1", "IC50": "> 70"}]}, {"biological_target": "T2, Fatty-acid amide hydrolase 1 (Mus musculus) (UniProt O08914)", "T2 sequence (whole entry)": "T1 sequence (O08914 whole entry)", "test": "Reversible inhibition of mouse FAAH isolated from brain homogenate using [3H-ethanolamine]AEA as substrate incubated for 20 mins prior to substrate addition measured after 18 hrs by […] method", "values": [{"molecule": "NC(=O)c1ccn(-c2cccc(OC(=O)NCCOCCOc3ccc(F)cc3F)c2)c1", "inhibition": "Active"}, {"molecule": "O=C(CCCCCCc1ccccc1)c1ncc(-c2ccccn2)o1", "inhibition": "Active"}, {"molecule": "NC(=O)c1ccn(-c2cccc(OC(=O)NCCOCCOc3ccc(F)cc3)c2)c1", "inhibition": "Active"}]}]}
